Laboratory results taken from patent US9486422B2, “Small molecule inhibitors of Mcl-1 and the uses of thereof” (THE REGENTS OF THE UNIVERSITY OF MICHIGAN, priority 2011, dated 2016).
Read-outs that look alike come from different tables or passages of the source.

How the values were obtained:
A1/Bfl-1 = target: T1, A1/Bfl-1 (Homo sapiens, UniProt Q16548); test: FP-based binding assay, A1/Bfl-1
T1 sequence (Q16548 1-151): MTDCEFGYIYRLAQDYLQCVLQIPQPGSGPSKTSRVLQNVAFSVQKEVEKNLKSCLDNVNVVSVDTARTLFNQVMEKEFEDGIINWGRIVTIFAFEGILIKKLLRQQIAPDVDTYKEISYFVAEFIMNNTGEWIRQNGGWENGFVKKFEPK

AsPc1 = test: Cell growth inhibition (WST-8), AsPc1; type: cell-based; settings: Homo sapiens, ASPC1, 96 h; 4 days treatment
Description: (§1) Human PC cell lines AsPC-1, BxPC-3 and Capan-2 were cultured in RPMI 1640 medium, while Panc-1 and MiaPaCa were cultured in DMEM medium (Life Technologies), all supplemented with 10% fetal bovine serum (Thermo Scientific HyClone). The rate of cell growth inhibition after treatment with increasing concentrations of the tested compounds was determined by WST-8 assay as described in the manufacturers protocol (Dojindo Molecular Technologies Inc.).

Bcl-w = target: T2, Bcl-w (Homo sapiens, UniProt Q92843); test: FP-based binding assay, Bcl-w
T2 sequence (Q92843 1-155): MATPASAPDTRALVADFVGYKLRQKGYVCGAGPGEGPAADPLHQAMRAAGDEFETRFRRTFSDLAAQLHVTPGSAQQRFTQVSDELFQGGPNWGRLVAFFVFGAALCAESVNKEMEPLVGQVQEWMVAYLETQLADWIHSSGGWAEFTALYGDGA

[1] = tested on: Bax/Bak-deficient (DKO) MEFs; test: Induction of apoptosis in MEF DKO cells; type: cell-based, murine; settings: 10 μM, 24 h
Bcl-2 [2] = test: FP-based binding assay, Bcl-2
Bcl-2 [3] = target: T3, Bcl-2 (Homo sapiens, UniProt P10415); test: FP-based binding assay, Bcl-2; settings: read-out: Bcl-2 Ki ± SD
T3 construct: His-tagged proteins containing; fused on or other part: A 16-residue segment of the flexible loop of Bcl-xL (BCL2L1, Q07817; given as residues 35 to 50) set into the Bcl-2 loop region; His tag with TEV site from the pHis-TEV vector

[4] = target: T4, cellular Mcl-1 protein (2LMP cell lysate) (Homo sapiens, UniProt Q07820); test: Biotin-streptavidin pull-down with biotin-labeled Noxa BH3 peptide; type: binding
T4 construct: endogenous in cells; host or cells: 2LMP (subclone of MDA-MB-231) cell lysate
Description: Human breast cancer 2LMP cells, a subclone of the MDA-MB-231 cell line, were lysed in CHAPS buffer (10 mM HEPES (pH 7.4), 2.5 mM EDTA, 150 mM NaCl, 1.0% CHAP). Pre-cleared cell lysates were incubated with different concentrations of tested compounds, followed by incubation with biotinylated Noxa BH3 peptide (residues 18-43) and streptavidin-agarose beads to pull-down Mcl-1 protein bound to Noxa peptide. Beads were washed with CHAPS buffer, and Mcl-1 protein was eluted by boiling in SDS-PAGE sample buffer and analyzed by Western blotting using Mcl-1 antibody (Santa Cruz). DMSO alone was used as a control for nonspecific pull-down.

[5] = tested on: activated Bax in BxPC-3 cells; test: Bax activation, 6A7 anti-Bax immunostaining, BxPC-3; type: cell-based, human; settings: 24 h
Description: Cells mounted on glass slides were permeabilized with PBS containing 0.3% Triton X-100, and blocked with 1% bovine serum albumin in PBS for 30 min at room temperature, followed with overnight incubation with anti-Bak 6A7 (Calbiochem) at 4° C. After thorough washing of the sections in PBS, a secondary antibody labeled with DyLight 488 (Thermo Scientific) was added and incubated for 2 h at room temperature. Nuclei were visualized with DAPI. Samples were analyzed with a FluoView 500 Confocal Laser Scanning Microscope (Olympus).

Mcl-1 = Mcl-1 (Homo sapiens, UniProt Q07820); test: FP-based binding assay, Mcl-1
MiaPaCa-2 = test: Cell growth inhibition (WST-8), MiaPaCa-2; type: cell-based; settings: Homo sapiens, MIA PaCa-2, 96 h; 4 days treatment
Description: as §1

Panc-1 cells = test: Induction of apoptosis, Annexin V/PI, Panc-1; type: cell-based, human
Description: An Annexin-V-FLUOS/Propidium iodide staining kit and ELISA detection kit (Roche Applied Science) were used to detect apoptosis in PC cells. Cells were treated with Mcl-1 inhibitors for different time points, harvested, washed with PBS and apoptosis was quantified according to manufacturer's protocol.

[6] = tested on: bone marrow derived cells from patients with multiple myeloma; test: Cellular viability (trypan blue), multiple myeloma patient cells; type: cell-based; settings: Homo sapiens, 0-10 μM, 0-72 hrs
Description: Blood or bone marrow samples from multiple myeloma patients was obtained from treated or untreated patients after informed consent. Plasma cells were obtained after gradient density centrifugation using Ficoll Hypaque. Some samples were purified for C138^+ population using flow cytometry. In all cases, purity of the plasma cells was higher than 90%, as assessed by morphology.
Isolated MM cells were maintained in RPMI 1640 medium supplemented with 10% fetal bovine serum (Hyclone Laboratories, Logan, Utah) and 1% Penicillin-Streptomycin (Invitrogen, Carlsbad, Calif.), at 37° C. in a humidified incubator with 5% CO2. […] The number of viable cells was determined by trypan blue exclusion test with trypan blue (0.4%) purchased from Sigma Chemical Co. (St. Louis, Mo.). All experiments are performed in triplicate and statistical analysis was done using the t test (two tailed) with 95% confidence intervals between treated and untreated samples. P<0.05 was used to indicate statistical significance.

[7] = Metabolic stability assay, liver microsomes; type: in vitro ADME, mice; settings: mouse, pooled mouse liver microsomes; 1 μM compound, 1.2 mg/ml microsomes, 37° C.
Description: Metabolic stability of UMI-77 was determined using the pooled mice liver microsomes (XenoTech, LLC). The conditions of the assay and quantification of UMI-77 in different time points are provided.
The β-NADPH (Sigma-Aldrich) was dissolved in 0.1 M phosphate buffer containing 3.3 mM MgCl2 right before use. The pooled mice liver microsomes (XenoTech, LLC) were diluted with 0.1 M phosphate buffer containing 3.3 mM MgCl2, followed by adding the reduced β-NADPH solution. After initiating the enzymes by adding β-NADPH, the mixture was incubated at 37° C. for […] The tested compound UMI-77 was added into the mixture and incubated at 37° C. The final concentrations of the compound, microsomes, β-NADPH, phosphate buffer and MgCl2 were 1 μM, 1.2 mg/ml, 1 mM, 0.1 M, and 3.3 mM, respectively. An aliquot of 40 μl of mixture was collected at 0, 5, 10, 15, 30, 45 and 60 min and the reaction was stopped immediately by adding 120 μl of ice-cold acetonitrile containing an internal standard (100 mg/mL). The incubation solution was centrifuged at 14000 rpm for 5 minutes to precipitate protein. The UMI-77 concentration was determined by LC/MS/MS (Agilent 1200 HPLC system, Agilent Technologies and QTRAP 3200 mass spectrometer, Applied Biosystems/MDS Sciex). UMI-77 was detected under negative ionization mode and the multiple reaction monitoring (MRM) ion transition was m/z 468.1→221.0.

[8] = tested on: cytochrome c and Smac release in Panc-1 cells; test: Release of cytochrome c and Smac from mitochondria (Western blot); type: cell-based, human; settings: 24 h treatment
Description: The cells were treated and harvested at the indicated time points after treatment. Total cell lysates were subjected to electrophoresis onto SDS-containing 4-20% polyacrylamide gels (Invitrogen), and transferred to polyvinylidene difluoride (PVDF) membranes (Thermo Scientific). Following blocking in 5% milk, membranes were incubated with a specific primary antibody, washed, and incubated with horseradish peroxidase linked secondary antibody (Santa Cruz). The signals were visualized with the chemiluminescent horseradish peroxidase antibody detection reagent (Roche Molecular Biochemicals). Primary antibodies included: caspase-3 (Enzo Life Sciences), Mcl-1 and actin (Santa Cruz), Bcl-xL (BD Transduction Laboratories); Bcl-2, Bax, pro-PARP and cytochrome-c (Cell Signaling), Bak (Calbiochem), and Smac (Abgent).

Mcl-1, sequence (Q07820 171-327): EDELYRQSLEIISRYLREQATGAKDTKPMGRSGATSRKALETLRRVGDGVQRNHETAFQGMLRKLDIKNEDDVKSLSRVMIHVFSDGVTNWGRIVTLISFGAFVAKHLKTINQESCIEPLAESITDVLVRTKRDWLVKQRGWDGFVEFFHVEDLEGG
T4 sequence (Q07820 whole entry): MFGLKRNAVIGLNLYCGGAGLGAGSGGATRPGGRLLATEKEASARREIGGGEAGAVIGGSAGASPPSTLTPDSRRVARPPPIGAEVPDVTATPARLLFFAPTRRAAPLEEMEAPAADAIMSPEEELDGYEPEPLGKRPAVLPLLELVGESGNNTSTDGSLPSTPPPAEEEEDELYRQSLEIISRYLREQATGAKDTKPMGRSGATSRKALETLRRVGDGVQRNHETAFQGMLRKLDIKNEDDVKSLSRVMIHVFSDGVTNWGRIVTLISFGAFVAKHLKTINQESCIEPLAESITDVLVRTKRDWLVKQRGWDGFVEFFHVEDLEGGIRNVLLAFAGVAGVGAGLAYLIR
T3 sequence (P10415 with tags, fused parts or gaps with the stated changes): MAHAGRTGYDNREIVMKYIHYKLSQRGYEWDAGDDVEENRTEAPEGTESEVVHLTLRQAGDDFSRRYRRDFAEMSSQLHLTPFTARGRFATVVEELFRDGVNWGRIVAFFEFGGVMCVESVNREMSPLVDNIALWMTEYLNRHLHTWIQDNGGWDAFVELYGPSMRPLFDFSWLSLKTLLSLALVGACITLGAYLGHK

O=C(O)CSc1cc(NS(=O)(=O)c2ccc(Br)cc2)c2ccccc2c1O [Compound 9, 2-((4-(4-Bromophenylsulfonamido)-1-hydroxynaphthalen-2-yl)thio)acetic acid]
fold lower affinity to A1/Bfl-1 than to Mcl-1 (selectivity) (A1/Bfl-1): 11 fold | Ki (A1/Bfl-1; read-out: A1/Bfl-1 Ki ± SD): 5.33 ± 1 µM | IC50 (AsPc1): 16.1 ± 4.2 µM | fold lower affinity to Bcl-w than to Mcl-1 (selectivity) (Bcl-w): 17 fold | Ki (Bcl-w; competitive FP, FAM-BID 2 nM, protein 40 nM, read-out: Bcl-w Ki ± SD): 8.19 ± 1.9 µM | apoptotic cells in MEF DKO cells [1]: 16% | fold lower affinity to Bcl-2 than to Mcl-1 (selectivity) (Bcl-2 [2]): more than 50 fold | Ki (Bcl-2 [3]): 23.8 ± 1.81 µM | concentration from which BL-Noxa/cellular Mcl-1 interaction is blocked [4]: ≥ 10 µM | disruption of BL-Noxa/cellular Mcl-1 interaction, result in words [4]: effectively disrupted | concentration from which activated Bax increases [5]: ≥ 5 µM | fold improved binding to Mcl-1 compared to 2 (Mcl-1): 7 fold | Ki (Mcl-1; FP and SPR based binding studies, read-out: Ki to Mcl-1): 0.49 µM | IC50 (Mcl-1; competitive FP, Flu-BID 2 nM, Mcl-1 90 nM, read-out: Mcl-1 IC50 ± SD): 1.87 ± 0.22 µM | Ki (Mcl-1; competitive FP, Ki calculated from IC50, read-out: Mcl-1 Ki ± SD): 0.49 ± 0.06 µM | IC50 (MiaPaCa-2): 12.5 ± 1.01 µM | early apoptotic cells (Panc-1 cells; 5 μM, 24 hours): 15% | early apoptotic cells (Panc-1 cells; 5 μM, 48 hours): 21% | early apoptotic cells (Panc-1 cells; 10 μM, 24 hours): 21% | early apoptotic cells (Panc-1 cells; 10 μM, 48 hours): 49% | IC50 [6]: 2.5 to 5 µM | half-life at 1 μM [7]: 45 min | concentration from which cytochrome c and Smac are released [8]: ≥ 10 µM
